Test results: paper PMC6429200, “Synthesis and Broad Antiviral Activity of Novel 2-aryl-isoindolin-1-ones towards Diverse Enterovirus A71 Clinical Isolates” (Molecules, 2019)

Key:
Assay type in all cases: cell-based, Enterovirus 71 (EV-A71)
EV-A71 strain H = assay: CPE inhibition assay for anti-EV-A71 in Vero cells, H strain
Procedure: (§1) An in-vitro antiviral assay was established using the Africa monkey kidney cell line Vero which was infected with different EV-A71 clinical isolates (BrCr, H, Shenzhen98 and Jiangsu52). A total of 24 synthetic compounds were initially screened in such an assay to determine their inhibitory effect on virus replication at 3-fold diluted concentrations serial (400~0.18 μM). The 50% effective concentration (EC50) of each compound was calculated according to its inhibitory rate values with the Reed–Muench method. The 50% cytotoxic concentration (CC50) was defined as the concentration that inhibited 50% cellular growth in comparison with the controls. The selectivity index (SI) was calculated as CC50/EC50. […] Generally, the EV-A71 H strain was less sensitive to most of the active compounds as compared to the other virus strains.
(§2) EV-A71 strain ShenZhen98 (SZ98) was isolated from the throat swab sample of an HFMD case which occurred in 1998 in China. This was kindly provided by Dr. Qi Jin, Institute of Pathogen Biology, Chinese Academy of Medical Science and Peking Union Medical School, Beijing, China. EV-A71 strains BrCr (VR-1775) and H (VR-1432) were purchased from the ATCC. The EV-A71 strain JS52 was a kind gift from Dr. Xiangzhong Ye, Beijing Wantai Biological Pharmacy Enterprise Co., Ltd. EV-A71 were all passaged in Vero cells.
(§3) The anti-EV-A71 activity of compounds was determined by the CPE inhibition method. Briefly, cells (3 × 10^4 cells/well) were plated into 96-well culture plates for incubation for 24 h. The medium was then removed and cells were infected with EV-A71 with 100TCID50 (50% tissue culture infective doses) in serum-free medium for 1 h at 37 °C. Then, the unbound viruses were removed and various concentrations of compounds were supplemented and incubated for another 48 h. The EC50 was determined by the Reed–Muench method. The selectivity index was calculated as the ratio of CC50/EC50 [15].

[1] = tested on: EV-A71 (H strain) VP1 protein; assay: Western blot of viral VP1 protein in infected Vero cells; conditions: H strain MOI = 0.1, 1 h infection then A3 for 24 h
Procedure: To further confirm the anti-EV-A71 activity, the expression levels of VP1 RNA and protein were determined. Vero cells were infected with the H strain of EV-A71 for 1 h followed by treatment with A3 of various concentrations for another 24 h. […] Meanwhile, the antiviral efficacy of A3 was also tested using viral titer reduction assays.
Vero cells (9 × 10^5 cells/well) were plated into 6-well culture plates for incubation for 16 h. The medium was removed and cells were infected with EV-A71 (H, MOI = 0.1). After 1 h, various concentrations of A3 were supplemented for incubation for another 24 h. The cells were lysed in the M-PER mammalian protein extraction reagent (Thermo, Rockford, IL, USA) containing halt protease inhibitor single-use cocktail (Thermo). The protein concentration was determined by the BCA reagents (Thermo). About 15 μg of proteins was denatured and applied to sodium dodecyl sulfate-polyacrylamide gel electrophoresis (SDS-PAGE). The electrophoresis products were transferred to a polyvinyl idenefluoride (PVDF) film and PVDF membranes were then incubated at room temperature with a specific primary antibody. […]
Figure 2 Compound A3 inhibited EV-A71 replication in vitro. […] Intracellular viral VP1 protein (A) and RNA (B) were determined by Western blot and qRT-PCR assays, respectively. […]

[2] = tested on: EV-A71 strain ShenZhen98 (SZ98); assay: CPE inhibition assay for anti-EV-A71 in Vero cells, Shenzhen98 strain
Procedure: as §1, §2, §3

[3] = tested on: EV-A71 strain Jiangsu52 (JS52); assay: CPE inhibition assay for anti-EV-A71 in Vero cells, Jiangsu52 strain
Procedure: as §1, §2, §3

EV-A71 strain BrCr = assay: CPE inhibition assay for anti-EV-A71 in Vero cells, BrCr strain
Procedure: as §1, §2, §3

[4] = Enterovirus A, EVA71, Vero cells, 100TCID50, 48 h

SMILES: O=C1c2ccccc2CN1c1ccc(Cl)cc1 [Compound A3, 2-(4-chlorophenyl)isoindolin-1-one]
- H SI (EV-A71 strain H; CC50/EC50): 168
- EC50 (EV-A71 strain H; [4]): 1530 ± 160 nM
- viral VP1 protein level [1]: decreased the levels of viral VP1 protein in a dose-dependent manner
- Shenzhen98 SI ([2]; CC50/EC50): 199
- EC50 [2, 4]: 1290 ± 240 nM
- Jiangsu52 SI ([3]; CC50/EC50): 199
- EC50 [3, 4]: 1290 ± 240 nM
- BrCr SI (EV-A71 strain BrCr; CC50/EC50): 199
- EC50 (EV-A71 strain BrCr; [4]): 1290 ± 240 nM
